Values quoted from earlier work in patent US20050008712A1, “Compositions incorporating high-caffeine green tea extract and related methods for promoting healthy body weight” (priority 2003, published 2005).

Conditions: rats

For `O=C(O[C@@H]1Cc2c(O)cc(O)cc2O[C@@H]1c1cc(O)c(O)c(O)c1)c1cc(O)c(O)c(O)c1` [EGCG, (−)-epigallo-catechin-3-gallate], the “loss of body weight” value (after daily injections for a week) is listed as 20%, the blood cholesterol (injected) is listed as “significantly reduces” and the blood triglycerides (injected) is listed as “significantly reduces”. For the same compound, the body weight (injected) was “significantly reduces” and the food intake (injected) was “significantly reduces”.
